# Experimental data published in PubChem BioAssay (NCI).
#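 A five-concentration, 48-hour dose response in 96-well plates underlies each endpoint, interpolated linearly between surrounding concentrations. GI50 is the concentration that inhibits growth by half. At the TGI there is no net growth.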
# Legend:
# Test in all cases: NCI tumour cell line growth inhibition, 48 h
# 786-0 renal = system: 786-0 renal
# A498 renal = system: A498 renal
# A549 NSCLC = system: A549 NSCLC
# ACHN renal = system: ACHN renal
# BT-549 breast = system: BT-549 breast
# CAKI-1 renal = system: CAKI-1 renal
# CCRF-CEM leukemia = system: CCRF-CEM leukemia
# COLO 205 colon = system: COLO 205 colon
# DU-145 prostate = system: DU-145 prostate
# EKVX NSCLC = system: EKVX NSCLC
# HCC-2998 colon = system: HCC-2998 colon
# HCT-116 colon = system: HCT-116 colon
# HCT-15 colon = system: HCT-15 colon
# HL-60(TB) leukemia = system: HL-60(TB) leukemia
# HOP-62 NSCLC = system: HOP-62 NSCLC
# HOP-92 NSCLC = system: HOP-92 NSCLC
# HS 578T breast = system: HS 578T breast
# HT29 colon = system: HT29 colon
# IGROV1 ovarian = system: IGROV1 ovarian
# K-562 leukemia = system: K-562 leukemia
# KM12 colon = system: KM12 colon
# LOX IMVI melanoma = system: LOX IMVI melanoma
# M14 melanoma = system: M14 melanoma
# MALME-3M melanoma = system: MALME-3M melanoma
# MCF7 breast = system: MCF7 breast
# MDA-MB-231 breast = system: MDA-MB-231 breast
# MDA-MB-435 = system: MDA-MB-435
# MOLT-4 leukemia = system: MOLT-4 leukemia
# NCI-H226 lung = system: NCI-H226 lung
# NCI-H23 lung = system: NCI-H23 lung
# NCI-H460 lung = system: NCI-H460 lung
# NCI-H522 lung = system: NCI-H522 lung
# NCI/ADR-RES ovarian = system: NCI/ADR-RES ovarian
# OVCAR-3 ovarian = system: OVCAR-3 ovarian
# OVCAR-4 ovarian = system: OVCAR-4 ovarian
# OVCAR-5 ovarian = system: OVCAR-5 ovarian
# OVCAR-8 ovarian = system: OVCAR-8 ovarian
# PC-3 prostate = system: PC-3 prostate
# RPMI-8226 leukemia = system: RPMI-8226 leukemia
# RXF 393 renal = system: RXF 393 renal
# SF-268 CNS = system: SF-268 CNS
# SF-295 CNS = system: SF-295 CNS
# SF-539 CNS = system: SF-539 CNS
# SK-MEL-2 melanoma = system: SK-MEL-2 melanoma
# SK-MEL-28 melanoma = system: SK-MEL-28 melanoma
# SK-MEL-5 melanoma = system: SK-MEL-5 melanoma
# SK-OV-3 ovarian = system: SK-OV-3 ovarian
# SN12C renal = system: SN12C renal
# SNB-19 CNS = system: SNB-19 CNS
# SNB-75 CNS = system: SNB-75 CNS
# SR leukemia = system: SR leukemia
# SW-620 colon = system: SW-620 colon
# T-47D breast = system: T-47D breast
# TK-10 renal = system: TK-10 renal
# U251 CNS = system: U251 CNS
# UACC-257 melanoma = system: UACC-257 melanoma
# UACC-62 melanoma = system: UACC-62 melanoma
# UO-31 renal = system: UO-31 renal
compound,measurement,setting,value
CSc1ccc(C2=NN(C(=O)c3ccc(N)cc3)C(c3ccc(F)cc3)C2)cc1 (stereo unspecified),GI50,786-0 renal,13.5 µM
same,TGI,786-0 renal,27.1 µM
same,GI50,A498 renal,12.9 µM
same,TGI,A498 renal,27.3 µM
same,GI50,A549 NSCLC,13.7 µM
same,TGI,A549 NSCLC,32.7 µM
same,GI50,ACHN renal,7.35 µM
same,TGI,ACHN renal,19.7 µM
same,GI50,BT-549 breast,12.3 µM
same,TGI,BT-549 breast,28.1 µM
same,GI50,CAKI-1 renal,15.4 µM
same,TGI,CAKI-1 renal,37.4 µM
same,GI50,CCRF-CEM leukemia,0.314 µM
same,TGI,CCRF-CEM leukemia,1.72 µM
same,GI50,COLO 205 colon,7.45 µM
same,TGI,COLO 205 colon,22.7 µM
same,GI50,DU-145 prostate,10.6 µM
same,TGI,DU-145 prostate,24 µM
same,GI50,EKVX NSCLC,16.6 µM
same,TGI,EKVX NSCLC,34 µM
same,GI50,HCC-2998 colon,8.79 µM
same,TGI,HCC-2998 colon,21.8 µM
same,GI50,HCT-116 colon,1.73 µM
same,TGI,HCT-116 colon,3.93 µM
same,GI50,HCT-15 colon,3.28 µM
same,TGI,HCT-15 colon,14.4 µM
same,GI50,HL-60(TB) leukemia,10.5 µM
same,TGI,HL-60(TB) leukemia,36.1 µM
same,GI50,HOP-62 NSCLC,16 µM
same,TGI,HOP-62 NSCLC,29.8 µM
same,GI50,HOP-92 NSCLC,2.36 µM
same,TGI,HOP-92 NSCLC,17.7 µM
same,GI50,HS 578T breast,21.4 µM
same,TGI,HS 578T breast,55.8 µM
same,GI50,HT29 colon,3.72 µM
same,TGI,HT29 colon,17.5 µM
same,GI50,IGROV1 ovarian,4.37 µM
same,TGI,IGROV1 ovarian,25.5 µM
same,GI50,K-562 leukemia,3.69 µM
same,TGI,K-562 leukemia,11.2 µM
same,GI50,KM12 colon,2.03 µM
same,TGI,KM12 colon,4.55 µM
same,GI50,LOX IMVI melanoma,2.53 µM
same,TGI,LOX IMVI melanoma,6.84 µM
same,GI50,M14 melanoma,4.24 µM
same,TGI,M14 melanoma,15.1 µM
same,GI50,MALME-3M melanoma,8.09 µM
same,TGI,MALME-3M melanoma,23 µM
same,GI50,MCF7 breast,3.42 µM
same,TGI,MCF7 breast,15.2 µM
same,GI50,MDA-MB-231 breast,12.6 µM
same,TGI,MDA-MB-231 breast,30.6 µM
same,GI50,MDA-MB-435,6.55 µM
same,TGI,MDA-MB-435,23.6 µM
same,GI50,MOLT-4 leukemia,10.5 µM
same,TGI,MOLT-4 leukemia,38.2 µM
same,GI50,NCI-H226 lung,11 µM
same,TGI,NCI-H226 lung,29.6 µM
same,GI50,NCI-H23 lung,17.5 µM
same,TGI,NCI-H23 lung,37.9 µM
same,GI50,NCI-H460 lung,7.83 µM
same,TGI,NCI-H460 lung,35.2 µM
same,GI50,NCI-H522 lung,13.8 µM
same,TGI,NCI-H522 lung,30.9 µM
same,GI50,NCI/ADR-RES ovarian,16.1 µM
same,TGI,NCI/ADR-RES ovarian,38.5 µM
same,GI50,OVCAR-3 ovarian,4.54 µM
same,TGI,OVCAR-3 ovarian,17.2 µM
same,GI50,OVCAR-4 ovarian,15 µM
same,TGI,OVCAR-4 ovarian,31.9 µM
same,GI50,OVCAR-5 ovarian,16.7 µM
same,TGI,OVCAR-5 ovarian,31.2 µM
same,GI50,OVCAR-8 ovarian,16.1 µM
same,TGI,OVCAR-8 ovarian,32.5 µM
same,GI50,PC-3 prostate,4.5 µM
same,TGI,PC-3 prostate,19.1 µM
same,GI50,RPMI-8226 leukemia,1.88 µM
same,TGI,RPMI-8226 leukemia,4.41 µM
same,GI50,RXF 393 renal,17.7 µM
same,TGI,RXF 393 renal,34.1 µM
same,GI50,SF-268 CNS,3.09 µM
same,TGI,SF-268 CNS,12.6 µM
same,GI50,SF-295 CNS,13.2 µM
same,TGI,SF-295 CNS,27.9 µM
same,GI50,SF-539 CNS,15.6 µM
same,TGI,SF-539 CNS,32.4 µM
same,GI50,SK-MEL-2 melanoma,21.1 µM
same,TGI,SK-MEL-2 melanoma,39.9 µM
same,GI50,SK-MEL-28 melanoma,18.4 µM
same,TGI,SK-MEL-28 melanoma,34.7 µM
same,GI50,SK-MEL-5 melanoma,5.66 µM
same,TGI,SK-MEL-5 melanoma,18.8 µM
same,GI50,SK-OV-3 ovarian,16.2 µM
same,TGI,SK-OV-3 ovarian,31.7 µM
same,GI50,SN12C renal,2.49 µM
same,TGI,SN12C renal,10.2 µM
same,GI50,SNB-19 CNS,8.94 µM
same,TGI,SNB-19 CNS,22.3 µM
same,GI50,SNB-75 CNS,14.2 µM
same,TGI,SNB-75 CNS,28.1 µM
same,GI50,SR leukemia,1.52 µM
same,TGI,SR leukemia,4.31 µM
same,GI50,SW-620 colon,6.27 µM
same,TGI,SW-620 colon,26.3 µM
same,GI50,T-47D breast,6.45 µM
same,TGI,T-47D breast,27.6 µM
same,GI50,TK-10 renal,7.5 µM
same,TGI,TK-10 renal,26.1 µM
same,GI50,U251 CNS,3.56 µM
same,TGI,U251 CNS,12.6 µM
same,GI50,UACC-257 melanoma,20.4 µM
same,TGI,UACC-257 melanoma,35.6 µM
same,GI50,UACC-62 melanoma,10.1 µM
same,TGI,UACC-62 melanoma,22.5 µM
same,GI50,UO-31 renal,10.6 µM
same,TGI,UO-31 renal,24 µM
